# Experimental data: publication PMC8341105, “Mapping the energy landscape of protein–ligand binding via linear free energy relationships determined by protein NMR relaxation dispersion” (RSC Chemical Biology, 2020)
# Several values for one entry are separate records, joined by “and”; a condition that tells them apart may be missing. Equal values may be shown once. Read-outs that look alike come from different tables or passages of the source.
# What was measured:
# [1] = biological target: T1, galectin-3C (Homo sapiens, UniProt P17931); test: 15N CPMG relaxation dispersion of ligand binding kinetics; details: for kex, Group 1: Group 1 residues fitted jointly: slow exchange corresponding to ligand binding/unbinding; for kex, Group 2: Group 2 residues fitted jointly: fast conformational exchange independent of ligand binding/unbinding; for Population (relative population of the bound state, pB), Group 1: global fit of Group 1 residues, near-saturated NMR sample
# T1 construct: the carbohydrate-recognition domain of galectin-3 (galectin-3C); made in house
# T1 sequence (P17931 118-248 limits assumed): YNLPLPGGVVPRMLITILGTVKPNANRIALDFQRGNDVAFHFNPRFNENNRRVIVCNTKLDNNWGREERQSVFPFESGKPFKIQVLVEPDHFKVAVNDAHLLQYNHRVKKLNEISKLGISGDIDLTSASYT
# Description: We measured equilibrium exchange between free and ligand-bound states of galectin-3C using ^15N CPMG relaxation dispersion experiments[15] acquired on near-saturated samples at two static magnetic field strengths. […] We analyzed the relaxation dispersion profiles using a two-state exchange model (eqn (1)–(4)).[18,27,28] […] All residues within a given group were then fitted jointly to yield global exchange parameters, kex and p, and residue-specific ΔδCPMG (ESI, ^† Table S1 lists all residues included in the fit for the two groups of each complex together with the fitted parameters). In the following, we focus on the exchange related to ligand binding and release.
# In the present case, we determined all exchange parameters directly from the relaxation dispersion data. […] This requires that the ligand and protein concentrations are measured accurately, Kd is known from previous experiments, and the NMR spectra of the free and bound states are available; these requirements are easily met in most cases. While the amplitude and shape of the relaxation dispersion profile depends intricately on the populations, rates, and chemical shift difference, it may be expected that off-rates can be determined for systems with dissociation constants in the range of 0.1 μM to 1 mM.
# ^15N-Labeled galectin-3C samples were prepared by extensive dialysis (Slide-A-Lyzer MINI Dialysis, ThermoScientific) against 5 mM 4-(2-hydroxyethyl)-1-piperazinethanesulfonic acid (HEPES) buffer to remove all lactose, followed by centrifugation at 14 000 rpm for 5 minutes to remove any aggregates. The protein concentration was determined by UV absorption at 280 nm, as described before.[33] […] Ligand–galectin-3C complexes were prepared by titrating freshly sonicated stock solutions of the ligands into apo galectin-3C samples while monitoring the galectin-3C chemical shifts in the ^15N heteronuclear single-quantum correlation (HSQC) spectrum. At the end of each titration, the total amount of added DMSO in the L2 and L3 samples was 2% (v/v).
# Relaxation-compensated CPMG relaxation dispersion experiments[15] were performed using the constant-time approach[34] covering 18–24 different refocusing frequencies, νcp. An equilibration period of 5 ms was added prior to the CPMG refocusing pulse train to ensure that the initial magnetizations reflect the relative populations of the exchanging states.[35] […] Spectra were processed using NMRPipe.[37] The processing protocol involved a solvent filter, cosine-squared apodization functions, zero filling to twice the number of increments in all dimensions, and a polynomial baseline correction in the ^1H dimension. Relaxation rates were extracted using PINT, which employs line-shape fitting to resolve overlapped peaks.[38] Peak intensities were evaluated using a weighted sum of Lorentzian and Gaussian line shapes. Standard deviations were determined by propagating the errors of intensities estimated from the baseplane noise. Error estimates are reported as one standard deviation.
# The relaxation dispersion data were analyzed using CPMGfit v2.22, an in-house Matlab program.
# [2] = biological target: T1, galectin-3C; parameters: method as in PMID 20873837; details: ITC under sample conditions near-identical to those used for CPMG dispersion experiments; determined previously; cited from earlier work
# [3] = k on is determined from Kd and koff (kon = koff/Kd)
# [4] = koff = kex(1 − pB), 15N CPMG relaxation dispersion, 301 K, near-saturated samples
Compound,"kex, Group 1 [1] [s⁻¹]","kex, Group 2 [1] [s⁻¹]","Population (relative population of the bound state, pB), Group 1 [1]","kon [1, 3]","koff [1, 4] [s⁻¹]",Kd [2] [µM],koff [1] [s⁻¹],kon [1] [M⁻¹ s⁻¹],"kon ([1]; k on is determined from Kd and koff (kon = koff/Kd), read-out: k on) [M⁻¹ s⁻¹]","koff ([1]; koff = kex(1 − pB), 15N CPMG relaxation dispersion, 301 K, near-saturated samples, read-out: k off) [s⁻¹]"
"3′-(4-methoxy-2,3,5,6-tetrafluorobenzamido)-N-acetyllactosamine [Ligand L3]",123 ± 20,4110 ± 760,0.93–0.94 and 0.94 ± 0.01,2.4 ± 0.4 10^6 M^−1 s^−1,8 ± 1,3.3 ± 0.1,–,–,–,–
"OC[C@H]1O[C@@H](S[C@@H]2O[C@H](CO)[C@@H](O)[C@H](O)[C@H]2O)[C@H](O)[C@@H](n2cc(-c3cccc(F)c3)nn2)[C@H]1O [mL4, meta-fluoro-phenyltriazolyl-galactosylthioglucoside]",808 ± 55,4804 ± 448,–,–,–,–,8 ± 1,3.9e+06 ± 700000,–,–
"OC[C@H]1O[C@@H](S[C@@H]2O[C@H](CO)[C@@H](O)[C@H](O)[C@H]2O)[C@H](O)[C@@H](n2cc(-c3ccc(F)cc3)nn2)[C@H]1O [pL4, para-fluoro-phenyltriazolyl-galactosylthioglucoside]",859 ± 115,8386 ± 691,0.99 ± 0.01,–,–,2.5 ± 0.3,13 ± 1,5.2e+06 ± 800000,–,–
"OC[C@H]1O[C@@H](S[C@@H]2O[C@H](CO)[C@@H](O)[C@H](O)[C@H]2O)[C@H](O)[C@@H](n2cc(-c3ccccc3F)nn2)[C@H]1O [oL4, ortho-fluoro-phenyltriazolyl-galactosylthioglucoside]",1210 ± 209,15800 ± 386,0.97 ± 0.01,–,–,–,–,–,4.4e+06 ± 1.1e+06,32 ± 5
3′-benzamido-N-acetyllactosamine [Ligand L2],385 ± 126,5370 ± 850,0.93–0.94 and 0.93 ± 0.04,1.6 ± 0.5 10^6 M^−1 s^−1,28 ± 9,18.2 ± 0.2,–,–,–,–
